Measurements taken from paper PMC4602143, “A combined bioinformatics and functional metagenomics approach to discovering lipolytic biocatalysts” (Frontiers in Microbiology, 2015).
Read-outs that look alike come from different tables or passages of the source.

Test system: T1, PL-GOS
T1 construct: synthetic gene; N-terminal His6 with TEV site, tag cut by TEV protease; E. coli BL21(DE3) strain TMBL1503, pET-11a
Assay: pNP release, OD405, Lineweaver-Burk
Format: biochemical, metagenome: ocean surface water (Global Ocean Sampling)
Details: 50 mM Tris-HCl pH 7.3, 20°C, 65 nM enzyme
Description: pNP release, OD405, Lineweaver-Burk on PL-GOS

Km (read-out: pNP-butyrate) [µM]	Km (substrate above 20 μM (non-Michaelis-Menten below), read-out: pNP-palmitate) [µM]	SMILES
66.7		CCCC(=O)Oc1ccc([N+](=O)[O-])cc1 [pNP-butyrate]
	68.1	CCCCCCCCCCCCCCCC(=O)Oc1ccc([N+](=O)[O-])cc1 [pNP-palmitate]
